Reference: US9487553B2, “Boranophosphate analogues of cyclic nucleotides” (BIOLOG LIFE SCIENCE INSTITUTE FORSCHUNGSLABOR UND …, priority 2011, dated 2016)

Assays:
[1] = target: protein kinase A type I alpha holoenzyme (Homo sapiens, UniProt P10644); experiment: Standard photometric (Cook) assay with protein kinase A type I alpha holoenzyme; assay type: biochemical; settings: holoenzyme RIα
From the text: In a first experiment, the biological activity of the Rp- and Sp-isomer of 8-bromoadenosine-3′,5′-cyclic boranophosphate (examples 1 and 2) has been tested with the holoenzyme of protein kinase A type I alpha (FIGS. 3 and 4) using a standard photometric assay (Cook, P. F.; Neville, M. E., Jr.; Vrana, K. E.; Hartl, F. T. and Roskoski, R., Jr., Biochemistry 21, 5794-5799 (1982)).
As a control, two boranophosphate analogues with a 2′-O-methyl modification (Rp-2′-O-Me-cAMPB and Sp-2′-O-Me-cAMPB, examples 7 & 8) have been tested by the same type of assay with protein kinase A type I alpha as well.
FIG. 5 depicts the activity overview of four different cyclic boranophosphate analogues with protein kinase A type I alpha holoenzyme. 9108: Sp-2′-O-Me-cAMPB; 9109: Rp-2′-O-Me-cAMPB; 9110: Sp-8-Br-cAMPB; 9111: Rp-8-Br-cAMPB; controls: B 001: Rp-8-Br-cAMPS. Control: cAMP. “Cook Assay” with Holoenzyme RIα.

[2] = system: PDE type I from bovine brain; experiment: Resistance towards phosphodiesterase: incubation with PDE type I from bovine brain, HPLC
Description: Activity of the enzyme was checked by hydrolysis of cyclic AMP. Stability was monitored by HPLC (RP-18, 11 Vol.-% propanol-2, 20 mM TEAF buffer, pH 6.8, 1 ml/min., UV 264 nm).

protein kinase G I α = target: T1, protein kinase G I α (Homo sapiens, UniProt Q13976); experiment: Protein kinase G I alpha activation, phosphotransferyl assay; assay type: biochemical; settings: 10 nM, 100 nM and 1 μM
T1 sequence (Q13976 1-671): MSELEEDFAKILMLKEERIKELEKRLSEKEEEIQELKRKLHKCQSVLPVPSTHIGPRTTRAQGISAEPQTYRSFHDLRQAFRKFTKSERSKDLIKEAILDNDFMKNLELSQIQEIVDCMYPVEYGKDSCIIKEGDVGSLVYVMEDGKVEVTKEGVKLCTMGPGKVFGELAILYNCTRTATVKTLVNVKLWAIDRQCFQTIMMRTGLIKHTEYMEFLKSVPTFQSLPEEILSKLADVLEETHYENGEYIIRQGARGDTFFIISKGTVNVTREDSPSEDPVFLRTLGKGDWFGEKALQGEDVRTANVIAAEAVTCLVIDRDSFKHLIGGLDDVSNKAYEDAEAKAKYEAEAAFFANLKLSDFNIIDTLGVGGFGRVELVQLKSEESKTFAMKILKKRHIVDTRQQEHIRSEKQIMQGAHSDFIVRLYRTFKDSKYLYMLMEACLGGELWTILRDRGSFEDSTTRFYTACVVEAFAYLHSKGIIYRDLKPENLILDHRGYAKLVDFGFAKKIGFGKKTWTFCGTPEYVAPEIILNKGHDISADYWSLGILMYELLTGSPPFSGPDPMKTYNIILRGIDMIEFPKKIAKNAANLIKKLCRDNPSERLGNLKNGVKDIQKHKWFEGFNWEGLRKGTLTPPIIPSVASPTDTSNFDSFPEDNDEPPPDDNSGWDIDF
From the text: Next, the activity profile of some cyclic boranophosphates disclosed in this invention has also been investigated on protein kinase G I α (FIGS. 8 and 9). Potential activatory potential towards the enzyme has been determined by a standard phosphotransferyl assay protocol according to Dostmann et al. (Dostmann, W. R.; Nickl, C.; Thiel, S.; Tsigelny, I.; Frank, R.; and Tegge, W. J., Pharmacol. Ther., 82, 373-387 (1999). FIG. 8 depicts the activity (μmol×min^−1×mg^−1) overview of six different cyclic boranophosphate analogues with protein kinase G type I at 10 nM, 100 nM and 1 μM. BLG-9108: […]; BLG-9110: Sp-8-Br-cAMPB; BLG-9111: Rp-8-Br-cAMPB; BLG-9112: Sp-8-Br-cGMPB; BLG-9113: Rp-8-Br-cGMPB; control: cyclic GMP.

PDE 1 from bovine heart = experiment: Resistance towards phosphodiesterase: incubation with PDE 1 from bovine heart, HPLC
Description: For this purpose 0.1 μmol of Rp-8-bromoadenosine-3′,5′-cyclic boranophosphate (example 1) and Sp-8-bromoadenosine-3′,5′-cyclic boranophosphate […] dissolved in TRIS buffer pH 7.2 containing calcium chloride and calmodulin and incubated with PDE type I from bovine brain (Sigma-Aldrich) at 37° C. Activity of the enzyme was checked by hydrolysis of cyclic AMP. Stability was monitored by HPLC (RP-18, 11 Vol.-% propanol-2, 20 mM TEAF buffer, pH 6.8, 1 ml/min., UV 264 nm). […] This strategy of testing PDE performance was applied accordingly in degradation examples 10 and 11.
Thus, Rp-8-Br-cAMPB (example 1) and Sp-8-Br-cAMPS (Biolog, Bremen/Germany) were incubated with PDE 1 from bovine heart (Sigma-Aldrich) and monitored by HPLC as described above.
Rp-2′-O-Me-cAMPB (example 7) and Sp-2′-O-Me-cAMPS (Biolog, Bremen/Germany).

PDE IV (A4B) = target: T2, PDE IV (A4B) (Homo sapiens, UniProt P27815); experiment: Stability against PDE IV, HPLC; assay type: in vitro ADME; settings: several days
T2 construct: Houslay lab, Glasgow/Scotland (obtained from another laboratory)
T2 sequence (P27815 whole entry): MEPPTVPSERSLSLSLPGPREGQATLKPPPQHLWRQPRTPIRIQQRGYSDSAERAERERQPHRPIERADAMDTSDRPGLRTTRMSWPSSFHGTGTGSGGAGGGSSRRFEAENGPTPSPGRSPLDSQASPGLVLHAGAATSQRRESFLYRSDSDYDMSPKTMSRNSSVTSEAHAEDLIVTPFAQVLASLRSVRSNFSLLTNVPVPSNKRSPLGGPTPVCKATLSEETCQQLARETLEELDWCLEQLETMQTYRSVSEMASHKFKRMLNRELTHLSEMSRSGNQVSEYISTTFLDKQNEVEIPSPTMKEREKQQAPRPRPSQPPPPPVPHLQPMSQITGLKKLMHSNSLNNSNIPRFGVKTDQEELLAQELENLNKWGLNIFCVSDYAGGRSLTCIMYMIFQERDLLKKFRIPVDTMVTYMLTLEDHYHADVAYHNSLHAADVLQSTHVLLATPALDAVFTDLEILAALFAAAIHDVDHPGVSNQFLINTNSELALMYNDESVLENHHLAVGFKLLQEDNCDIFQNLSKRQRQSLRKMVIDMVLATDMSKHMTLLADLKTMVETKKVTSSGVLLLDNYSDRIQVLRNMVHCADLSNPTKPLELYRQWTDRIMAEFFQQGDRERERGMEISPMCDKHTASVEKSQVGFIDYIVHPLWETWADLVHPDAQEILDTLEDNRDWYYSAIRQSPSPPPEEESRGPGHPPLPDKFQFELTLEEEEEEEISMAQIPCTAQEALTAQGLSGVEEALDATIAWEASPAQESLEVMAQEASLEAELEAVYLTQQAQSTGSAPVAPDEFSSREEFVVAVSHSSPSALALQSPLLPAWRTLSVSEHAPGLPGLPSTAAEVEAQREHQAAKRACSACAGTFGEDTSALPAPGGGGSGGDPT
Description: Next, stability of the disclosed boranophosphates against PDE IV (A4B, Houslay lab, Glasgow/Scotland) was tested in similar experiments as described above.

protein kinase A type I alpha holoenzyme, sequence (P10644 whole entry): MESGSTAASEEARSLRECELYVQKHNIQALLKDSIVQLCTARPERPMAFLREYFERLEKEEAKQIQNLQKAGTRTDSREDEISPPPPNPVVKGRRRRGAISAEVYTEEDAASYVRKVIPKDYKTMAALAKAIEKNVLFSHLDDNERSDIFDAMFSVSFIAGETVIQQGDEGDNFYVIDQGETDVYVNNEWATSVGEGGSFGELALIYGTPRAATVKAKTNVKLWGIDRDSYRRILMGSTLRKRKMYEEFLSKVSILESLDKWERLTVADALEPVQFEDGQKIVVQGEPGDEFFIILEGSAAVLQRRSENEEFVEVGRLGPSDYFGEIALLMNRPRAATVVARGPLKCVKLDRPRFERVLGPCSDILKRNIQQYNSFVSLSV

effect on protein kinase A type I alpha holoenzyme [1] | degradation by PDE [2] | degradation by PDE (PDE 1 from bovine heart) | stability against PDE IV (PDE IV (A4B)) | Substance | modulation of protein kinase G (protein kinase G I α)
inhibitory potential | no degradation was detected | – | – | 8-Bromoadenosine-3′,5′-cyclic boranophosphate, Sp-isomer [Sp-8-Br-cAMPB] | as potent or even better as guanine related compounds
agonistic property | – | completely stable | completely stable | 8-Bromoadenosine-3′,5′-cyclic boranophosphate, Rp-isomer [Rp-8-Br-cAMPB] | as potent or even better as guanine related compounds
